Assay results from ChEMBL document CHEMBL3272125, “Antiprotozoal thiazoles. 2. 2-(5-Nitro-2-furyl-, thiazolyl-, and 1-methylimidazolyl-)thiazoles” (J Med Chem, 1977).

What was measured:
Trypanosoma cruzi [1] = experiment: Antiprotozoal activity against Trypanosoma cruzi BH infected in CFW mouse assessed as increase in host mean survival time at 100 mg/kg, ip administered daily for 5 days starting 4 hrs post-parasite infection (reference value: 14 +/- 1 days); type: functional; settings: route intraperitoneal
Trypanosoma cruzi [2] = experiment: Antiprotozoal activity against Trypanosoma cruzi BH infected in CFW mouse assessed as increase in host mean survival time at 10 mg/kg, ip administered daily for 5 days starting 4 hrs post-parasite infection (reference value: 14 +/- 1 days); type: functional; settings: route intraperitoneal
[3] = Acute toxicity in ip dosed CFW mouse administered daily for 5 days; type: organism-based; settings: in vivo
Trypanosoma cruzi [4] = experiment: Antiprotozoal activity against Trypanosoma cruzi BH infected in CFW mouse assessed as increase in host mean survival time at 50 mg/kg, ip administered daily for 5 days starting 4 hrs post-parasite infection (reference value: 14 +/- 1 days); type: functional; settings: route intraperitoneal
Trypanosoma cruzi [5] = experiment: Antiprotozoal activity against Trypanosoma cruzi BH infected in CFW mouse assessed as increase in host mean survival time at 50 mg/kg, po administered daily for 5 days starting 4 hrs post-parasite infection (reference value: 14 +/- 1 days); type: functional
Trypanosoma cruzi [6] = experiment: Antiprotozoal activity against Trypanosoma cruzi BH infected in CFW mouse assessed as increase in host mean survival time at 25 mg/kg, po administered daily for 5 days starting 4 hrs post-parasite infection (reference value: 14 +/- 1 days); type: functional
[7] = Acute toxicity in po dosed CFW mouse administered daily for 5 days; type: organism-based; settings: in vivo
Trypanosoma cruzi [8] = experiment: Antiprotozoal activity against Trypanosoma cruzi BH infected in CFW mouse assessed as increase in host mean survival time at 25 mg/kg, ip administered daily for 5 days starting 4 hrs post-parasite infection (reference value: 14 +/- 1 days); type: functional; settings: route intraperitoneal
Trypanosoma cruzi [9] = experiment: Antiprotozoal activity against Trypanosoma cruzi BH infected in CFW mouse assessed as increase in host mean survival time at 200 mg/kg, po administered daily for 5 days starting 4 hrs post-parasite infection (reference value: 14 +/- 1 days); type: functional
Trypanosoma cruzi [10] = experiment: Antiprotozoal activity against Trypanosoma cruzi BH infected in CFW mouse assessed as increase in host mean survival time at 100 mg/kg, po administered daily for 5 days starting 4 hrs post-parasite infection (reference value: 14 +/- 1 days); type: functional
Trypanosoma cruzi [11] = experiment: Antiprotozoal activity against Trypanosoma cruzi BH infected in CFW mouse assessed as increase in host mean survival time at 10 mg/kg, po administered daily for 5 days starting 4 hrs post-parasite infection (reference value: 14 +/- 1 days); type: functional
Trypanosoma cruzi [12] = experiment: Antiprotozoal activity against Trypanosoma cruzi BH infected in CFW mouse assessed as increase in host mean survival time at 5 mg/kg, ip administered daily for 5 days starting 4 hrs post-parasite infection (reference value: 14 +/- 1 days); type: functional; settings: route intraperitoneal
Trypanosoma cruzi [13] = experiment: Antiprotozoal activity against Trypanosoma cruzi BH infected in CFW mouse assessed as increase in host mean survival time at 5 mg/kg, po administered daily for 5 days starting 4 hrs post-parasite infection (reference value: 14 +/- 1 days); type: functional
Trypanosoma cruzi [14] = experiment: Antiprotozoal activity against Trypanosoma cruzi Peru infected in CFW mouse assessed as increase in host mean survival time at 5 mg/kg, po administered daily for 10 days starting 4 hrs post-parasite infection; type: functional
Trypanosoma cruzi [15] = experiment: Antiprotozoal activity against high myocardial tissue infiltration leishmanial form of Trypanosoma cruzi BHC/10 infected in CFW mouse assessed as increase in host mean survival time at 10 mg/kg, po administered daily for 10 days starting 4 hrs post-parasite infection; type: functional
Trypanosoma cruzi [16] = experiment: Antiprotozoal activity against Trypanosoma cruzi Peru infected in CFW mouse assessed as increase in host mean survival time at 25 mg/kg, po administered daily for 10 days starting 4 hrs post-parasite infection; type: functional
Trypanosoma cruzi [17] = experiment: Antiprotozoal activity against high myocardial tissue infiltration leishmanial form of Trypanosoma cruzi BHC/10 infected in CFW mouse assessed as increase in host mean survival time at 25 mg/kg, po administered daily for 10 days starting 4 hrs post-parasite infection; type: functional
Trypanosoma cruzi [18] = experiment: Antiprotozoal activity against Trypanosoma cruzi Peru infected in CFW mouse assessed as increase in host mean survival time at 10 mg/kg, po administered daily for 10 days starting 4 hrs post-parasite infection; type: functional
Trypanosoma cruzi [19] = experiment: Antiprotozoal activity against high myocardial tissue infiltration leishmanial form of Trypanosoma cruzi BHC/10 infected in CFW mouse assessed as increase in host mean survival time at 5 mg/kg, po administered daily for 10 days starting 4 hrs post-parasite infection; type: functional
Trypanosoma cruzi [20] = experiment: Antiprotozoal activity against Trypanosoma cruzi Y infected in CFW mouse assessed as increase in host mean survival time at 5 mg/kg, po administered daily for 10 days starting 4 hrs post-parasite infection; type: functional
Trypanosoma cruzi [21] = experiment: Antiprotozoal activity against Trypanosoma cruzi Y infected in CFW mouse assessed as increase in host mean survival time at 10 mg/kg, po administered daily for 10 days starting 4 hrs post-parasite infection; type: functional
Trypanosoma cruzi [22] = experiment: Antiprotozoal activity against Trypanosoma cruzi Y infected in CFW mouse assessed as increase in host mean survival time at 25 mg/kg, po administered daily for 10 days starting 4 hrs post-parasite infection; type: functional

Structure (SMILES)	MST (Trypanosoma cruzi [1]) [days]	MST (Trypanosoma cruzi [2]) [days]	LD50 at 120 h [3] [mg/kg]	MST (Trypanosoma cruzi [4]) [days]	MST (Trypanosoma cruzi [5]) [days]	MST (Trypanosoma cruzi [6]) [days]	LD50 at 120 h [7] [mg/kg]	MST (Trypanosoma cruzi [8]) [days]	MST (Trypanosoma cruzi [9]) [days]	MST (Trypanosoma cruzi [10]) [days]	MST (Trypanosoma cruzi [11]) [days]	MST (Trypanosoma cruzi [12]) [days]	MST (Trypanosoma cruzi [13]) [days]	also measured
Cn1c([N+](=O)[O-])cnc1-c1nc(/C=N/N2CCOCC2)cs1	60	0	> 800	7	0	0	> 1600	4	–	–	–	–	–	–
O=[N+]([O-])c1ccc(-c2nc(/C=N/N3CCCCCC3)cs2)o1	39	–	> 800	7	–	–	> 1600	4	2	0	–	–	–	–
O=[N+]([O-])c1cnc(-c2nc(/C=N/N3CCSCC3)cs2)s1	4	–	> 800	3	–	–	> 1600	0	1	0	–	–	–	–
O=[N+]([O-])c1ccc(-c2nc(/C=N/N3CCOCC3)cs2)s1	60	0	> 800	27	0	0	> 1600	12	60	0	0	0	0	–
O=[N+]([O-])c1ccc(-c2nc(/C=N/N3CCSCC3)cs2)o1	60	0	> 800	60	0	–	> 1600	18	18	4	–	0	–	–
O=[N+]([O-])c1cnc(-c2nc(/C=N/N3CCOCC3)cs2)s1	4	–	> 800	–	–	–	> 1600	–	0	–	–	–	–	–
O=[N+]([O-])c1ccc(-c2nc(/C=N/N3CCCCC3)cs2)o1	60	3	> 800	60	8	0	> 1600	42	32	39	–	0	–	–
O=[N+]([O-])c1cnc(-c2nc(/C=N/N3CCCCC3)cs2)s1	0	–	> 800	–	–	–	> 1600	–	0	–	–	–	–	–
O=[N+]([O-])c1ccc(-c2nc(/C=N/N3CCS(=O)(=O)CC3)cs2)o1	60	5	> 800	44	7	6	> 1600	18.5	5	3	0	0	–	–
Cn1c([N+](=O)[O-])cnc1-c1nc(/C=N/N2CCS(=O)(=O)CC2)cs1	60	60	> 800	60	60	60	> 1600	60	60	60	14	18.5	15	MST (Trypanosoma cruzi [14]): 35 days; MST (Trypanosoma cruzi [15]): 12 days; MST (Trypanosoma cruzi [16]): 60 days; MST (Trypanosoma cruzi [17]): 22 days; MST (Trypanosoma cruzi [18]): 60 days; MST (Trypanosoma cruzi [19]): 4 days; MST (Trypanosoma cruzi [20]): 37 days; MST (Trypanosoma cruzi [21]): 60 days; MST (Trypanosoma cruzi [22]): 60 days
O=[N+]([O-])c1ccc(-c2nc(/C=N/N3CCOCC3)cs2)o1	60	27	> 800	60	41	19.5	> 1600	60	60	60	0	0	0	–
CC1CS(=O)(=O)CCN1/N=C/c1ccc([N+](=O)[O-])o1 (stereo unspecified) [NIFURTIMOX]	60	60	–	60	60	60	–	60	60	60	4	2.5	0	MST (Trypanosoma cruzi [14]): 0 days; MST (Trypanosoma cruzi [15]): 5.5 days; MST (Trypanosoma cruzi [16]): 60 days; MST (Trypanosoma cruzi [17]): 6.5 days; MST (Trypanosoma cruzi [18]): 60 days; MST (Trypanosoma cruzi [19]): 3 days; MST (Trypanosoma cruzi [20]): 0 days; MST (Trypanosoma cruzi [21]): 8 days; MST (Trypanosoma cruzi [22]): 40 days
